Several values for one entry are separate records, joined by “and”; a condition that tells them apart may be missing. Equal values may be shown once. Read-outs that look alike come from different tables or passages of the source.
Key:
T. gondii RH-FLuc parent = assay: Luciferase growth assay, parental line of resistance selection; assay type: cell-based, Toxoplasma gondii; conditions: for luciferase signal (raw): parent
From the text: […]. […] […].

[1] = tested on: blood-stage P. falciparum; conditions: Fig 2A Tg_Pf_Cp EC50s; previously reported values, reference not visible in the shown part; cited from earlier work
[2] = tested on: T. gondii tachyzoites (type II ME49-FLuc); assay: Luciferase-based tachyzoite growth assay; assay type: cell-based, Toxoplasma gondii; set-up: EC50 log inhib vs normalized response: unit: µM
Experimental: All assays were carried out in a 96-well plate format containing confluent HFF monolayers to support parasite growth. To avoid edge effects, only the inner 60 wells of each plate were used. All compounds described were provided by the Broad Institute as 10 mM stocks in 100% DMSO and stored at −80 °C prior to use. Pyrimethamine (Sigma-Aldrich) was prepared as 5 mM stock in 100% DMSO and stored at −20 °C prior to use.
(§1) All statistical analyses were conducted using Prism 9 (GraphPad Software, Inc.). Dose–response inhibition curves for parasite and host cell toxicity screens (EC50 values) were generated using (Log(inhibitor) vs. normalized response—Variable slope) function. […] For multiple comparisons, two-way ANOVA analysis function using either Sidák’s multiple comparisons test or Dunnett’s multiple comparisons test was applied as indicated.

[3] = tested on: T. gondii ME49-FLuc chronic infection; assay type: in vivo, Ifngr1-/- mice; conditions: for Days (survival time of single mouse) / Survival event flag of single mouse (1 or 0): Fig 6C
Experimental: (§2) Ifngr1^−/− (B6.129S7-Ifngr1 ^tm1Agt /J) and CBA/J mice were purchased from Jackson Laboratory and bred locally at Washington University. Animal studies were conducted according to the U.S. Public Health Service policy on human care and use of laboratory animals. Animals were maintained in facilities approved by the Association for Assessment and Accreditation of Laboratory Animal Care. Studies were approved by Division of Comparative Medicine, Washington University. […] Animals were maintained on a 12:12 light cycle, room temperature maintained at 70℉ ± 2℉, and room humidity maintained at 50% ± 20%.
(§3) Testing of compounds to prevent reactivation of chronic infection was […] to test the efficacy of PheRS inhibitors against chronic infection. In both cases, male and female C57BL/6 Ifngr1^−/− mice were infected by oral gavage with 5 cysts of the ME49-Fluc strain isolated from chronically infected CBA/J mice. […] Animals were monitored for survival and weight loss for 30 days post-treatment.

[4] = tested on: T. gondii ME49-FLuc tissue cysts; assay type: in vivo, Ifngr1-/- mice
Experimental: as §2, §3

[5] = tested on: A549 (human lung carcinoma); assay: in vitro; assay type: cell-based; conditions: EC50 host cell/EC50 T. gondii
Experimental: (§4) For the toxicity screen, compounds were tested in 96-well plates using all the wells as no edge affect was observed. Compounds were diluted to 40 μM (2x concentration in 10% DMEM, 0.4% DMSO) before step-wise, 3-fold dilution in 10% DMEM to create 10-dose series (20 μM to 0.001 μM). Host cells were plated in black, μ-Clear 96-well plates (Greiner Bio-One). We compared several lineages including HepG2 (human hepatocellular carcinoma (ATCC-HB-8065)), THP-1 (human monocytic tumor line), SH-SY5Y (human neuroblastoma (ATCC CRL-2266)), A549 (human lung carcinoma (ATCC CRM-CCL-185)) and Caco-2 (human intestinal adenocarcinoma (ATCC HTB-37)) and HFF (primary human foreskin fibroblast) obtained from the laboratory of John Boothroyd at Stanford University. Cells were maintained in culture media according to the formulations recommended by ATCC. Cells were plated at a density (ranging from of 5 × 10^3 to 2 × 10^4 cells/well (100 μL vol)) resulting in sub-confluent monolayers to allow expansion during the 2 day growth assay. THP-1 cells were treated with 10 ng/ml phorbol 12-myristate 13-acetate (PMA) for 24 h to differentiate into macrophages before compound addition. For all other cells, compounds were added at 6 h post seeding to host cells containing plates (200 μL final volume, 0.2% DMSO) and incubated in culture medium at 37 °C supplemented with 5% CO2. At 44 h post compound addition (50 h total growth time), culture media was aspirated and replaced with Live Imaging solution (ThermoFisher) supplemented with 10 μg/mL Hoeschst 33342 (Sigma) for 20 min at 37 °C. […] Alternatively, plates fixed with 4% formaldehyde for 10 min and stained with 10 μg/mL Hoeschst 33342 (Sigma) for 20 min and imaged using a Cytation 3 multi-mode imager (DAPI, 10x objective, 4 images/well) and nuclei quantified using the Gen5 imager software (v3.08). Assays were repeated with two technical replicates within each of two independent biological replicates.
as §1

[6] = tested on: HepG2 (human hepatocellular carcinoma); assay: in vitro; assay type: cell-based; conditions: EC50 host cell/EC50 T. gondii
Experimental: as §4, §1

C. parvum = C. parvum mouse model; cited from earlier work
[7] = Toxoplasma gondii, ME49-FLuc, 10-point dose-response, two biological replicates, read-out: EC50, T. gondii tachyzoite growth
[8] = Toxoplasma gondii, Table 2, read-out: T. gondii EC50
[9] = Toxoplasma gondii, Table S1, ME49-FLuc tachyzoites, read-out: T. gondii EC50
[10] = Toxoplasma gondii, from 10-dose-response curve of Fig. 1, read-out: EC90, tachyzoite growth
[11] = Fig 1A rank order, T. gondii growth
[12] = Toxoplasma gondii, Fig 2A Tg_Pf_Cp EC50s, read-out: EC50 T. gondii

**Q.** Which EC50 (T. gondii RH-FLuc parent; Toxoplasma gondii, read-out: EC50, parent RH-FLuc) does the source give for `COc1ccc(NC(=O)N2CCCCN3[C@H](CN(C)C)[C@H](c4ccc(C#Cc5ccccc5)cc4)[C@@H]3C2)cc1` [BRD7929] here?
**A.** 14 nM

**Q.** And the “luciferase signal (raw)” value (T. gondii RH-FLuc parent; concentration 2.222222)?
**A.** 5 and 6 and 7 and 8

**Q.** What about the “luciferase signal (raw)” value (T. gondii RH-FLuc parent; concentration 6.666667) of the same molecule?
**A.** 5 and 4 and 6

**Q.** What about the “luciferase signal (raw, Fig 3B source data)” value (T. gondii RH-FLuc parent; {}) of the same molecule?
**A.** 5

**Q.** And the EC50 [1]?
**A.** 13 nM

**Q.** And the “EC50 log inhib vs normalized response” value [2]?
**A.** 0.0226

**Q.** What about the 3XEC90 ([2]; Fig 6A source data) of the same molecule?
**A.** 293.00

**Q.** What about the EC50 ([2]; ME49-FLuc, 10-point dose-response, two biological replicates, listed as BR7929, read-out: EC50, T. gondii tachyzoite growth) of the same molecule?
**A.** 22.6 nM

**Q.** What about the EC50 [2, 7] of the same molecule?
**A.** 23 nM

**Q.** What about the EC50 [2, 8] of the same molecule?
**A.** 23 nM

**Q.** What about the EC50 [2, 9] of the same molecule?
**A.** 22 nM

**Q.** And the EC50 ([2]; Toxoplasma gondii, Fig 6A source data, in vitro tachyzoites, read-out: EC50)?
**A.** 23 nM

**Q.** And the EC90 ([2]; Toxoplasma gondii, Fig 6A source data, in vitro tachyzoites, read-out: EC90)?
**A.** 98 nM

**Q.** And the EC90 [2, 10]?
**A.** 98 nM

**Q.** And the “3xEC90, tachyzoite growth” value ([2]; three times EC90)?
**A.** 0.293 µM

**Q.** What about the “onset of death, reactivation model” value ([3]; 10 mg/kg p.o. QD, 16 days) of the same molecule?
**A.** delayed onset of death

**Q.** What about the “survival vs vehicle, reactivation model” value ([3]; 10 mg/kg p.o. once a day, 16 days, P = 0.0003, Mantel-Cox) of the same molecule?
**A.** survived significantly longer

**Q.** And the “Days (survival of individual mice)” value ([3]; 10 mg/kg, c3: 1 = death, 0 = survivor)?
**A.** 10 days and 12 days and 24 days and 20 days and 30 days and 23 days and 22 days

**Q.** And the “Days (survival time of single mouse)” value ([3]; 10d-10 mg / kg)?
**A.** 13 days and 29 days and 14 days and 17 days and 19 days and 16 days

**Q.** And the “Survival event flag of single mouse (1 or 0)” value ([3]; 10d-10 mg / kg)?
**A.** 1 and 0

**Q.** And the “Days (survival time of single mouse)” value ([3]; 20d - 10 mg / kg, 10 mg/kg)?
**A.** 29 days and 17 days and 15 days and 20 days and 19 days and 22 days

**Q.** What about the “Survival event flag of single mouse (1 or 0)” value ([3]; 20d - 10 mg / kg, 10 mg/kg) of the same molecule?
**A.** 0 and 1

**Q.** What about the “survival vs sulfadiazine, oral challenge model” value ([4]; 10 mg/kg p.o. 20 days, P = 0.0487, Mantel-Cox) of the same molecule?
**A.** survived significantly longer than sulfadiazine mice

**Q.** What about the mean survival ([4]; 10 mg/kg p.o. QD for 10 days from 48 h post-challenge) of the same molecule?
**A.** 16.5 days

**Q.** And the mean survival ([4]; 10 mg/kg p.o. QD for 20 days from 48 h post-challenge)?
**A.** 21 days

**Q.** What about the “mice in which death was prevented” value ([4]; 10 mg/kg p.o. QD, 20 days) of the same molecule?
**A.** 3 of 8

**Q.** And the “animals cured by treatment, overall” value ([4]; 10 day and 20 day cohorts together)?
**A.** 4 of 16

**Q.** Which results are given for `COc1ccc(NC(=O)N2CCCCN3[C@H](CN(C)S(C)(=O)=O)[C@H](c4ccc(C#Cc5ccccc5)cc4)[C@@H]3C2)cc1` [BRD8494]?
**A.** A549 fold selectivity [5]: > 571.4 fold; HEPG2 fold selectivity [6]: 571.4 fold; EC50 [1]: 26 nM; EC50 log inhib vs normalized response [2, 11]: 0.03476; EC50 [2, 12]: 34.8 nM; EC50 [2, 7]: 34.8 nM; EC50 [2, 8]: 35 nM; EC50 [2, 9]: 34 nM; EC90 [2, 10]: 95 nM

**Q.** Which A549 fold selectivity [5] does the source give for `CN(C[C@@H]1[C@H](c2ccc(C#Cc3ccccc3)cc2)[C@@H]2CN(C(=O)Nc3ccc(OC4CC4)cc3)CCCCN12)S(C)(=O)=O` [BRD2987] here?
**A.** 114.0 fold

**Q.** What about the EC50 [1] of the same molecule?
**A.** 2 nM

**Q.** And the “EC50 log inhib vs normalized response” value [2, 11]?
**A.** 0.01849

**Q.** And the EC50 ([2]; Toxoplasma gondii, Fig S2 source data, read-out: T. gondii (EC50, Fig S2 source data))?
**A.** 18.5 nM

**Q.** And the EC50 [2, 7]?
**A.** 18.5 nM

**Q.** And the EC50 [2, 8]?
**A.** 19 nM

**Q.** And the EC50 [2, 9]?
**A.** 18 nM

**Q.** With `COc1ccc(NC(=O)N2CCCCN3[C@H](CO)[C@H](c4ccc(C#Cc5ccccc5)cc4)[C@@H]3C2)cc1` [BRD3444] as the molecule, how does the “reduction of oocyst shedding” value (C. parvum) read?
**A.** 96%

**Q.** What about the HEPG2 fold selectivity [6] of the same molecule?
**A.** 390.6 fold

**Q.** What about the EC50 [1] of the same molecule?
**A.** 12 nM

**Q.** What about the “EC50 log inhib vs normalized response” value [2, 11] of the same molecule?
**A.** 0.02885

**Q.** What about the EC50 [2, 12] of the same molecule?
**A.** 28.9 nM

**Q.** What about the EC50 [2, 7] of the same molecule?
**A.** 28.9 nM

**Q.** And the EC50 [2, 8]?
**A.** 29 nM

**Q.** What about the EC50 [2, 9] of the same molecule?
**A.** 28 nM

— publication PMC8786932, “Bicyclic azetidines target acute and chronic stages of Toxoplasma gondii by inhibiting parasite phenylalanyl t-RNA synthetase” (Nature Communications, 2022)
